Laboratory results: PubChem BioAssay AID256 (DTP/NCI, 2004)
Values joined by “and” are separate entries in the source; they are usually repeats but may differ in a detail not shown here. Identical values can stand only once. Toxic doses and inconclusive results are not listed. The calls were made as follows: active = survival T/C of 150% or more; inactive = T/C below 125% in these data.

System: CD2F1 mice, L1210 leukemia ip, survival T/C
Assay: NCI In Vivo Anticancer Drug Screen. Data for tumor model L1210 Leukemia (intraperitoneal) in CD2F1 (CDF1) mice
Conditions: higher = longer survival
Summary of the method: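 Mice carrying a transplanted tumor received test compound or vehicle alone. The value is the measurement in the treated group divided by that in the vehicle-treated control group.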

[1] = endpoint: mean survival time, dose: 100.0 mg/kg/injection, schedule: Q01DX001 (ip), vehicle: saline with Tween-80
[2] = endpoint: mean survival time, dose: 100.0 mg/kg/injection, schedule: Q04DX003 (ip), vehicle: saline with Tween-80
[3] = endpoint: mean survival time, dose: 200.0 mg/kg/injection, schedule: Q01DX001 (ip), vehicle: saline with Tween-80
[4] = endpoint: mean survival time, dose: 200.0 mg/kg/injection, schedule: Q04DX003 (ip), vehicle: saline with Tween-80
[5] = endpoint: mean survival time, dose: 400.0 mg/kg/injection, schedule: Q01DX001 (ip), vehicle: saline with Tween-80
[6] = endpoint: mean survival time, dose: 400.0 mg/kg/injection, schedule: Q04DX003 (ip), vehicle: saline with Tween-80
[7] = endpoint: mean survival time, dose: 100.0 mg/kg/injection, schedule: Q04DX002 (ip), vehicle: saline
[8] = endpoint: mean survival time, dose: 50.0 mg/kg/injection, schedule: Q04DX002 (ip), vehicle: saline with Tween-80
[9] = endpoint: mean survival time, dose: 100.0 mg/kg/injection, schedule: Q04DX002 (ip), vehicle: saline with Tween-80
[10] = endpoint: mean survival time, dose: 200.0 mg/kg/injection, schedule: Q04DX002 (ip), vehicle: saline with Tween-80
[11] = endpoint: mean survival time, dose: 100.0 mg/kg/injection, schedule: Q01DX009 (ip), vehicle: saline with Tween-80
[12] = endpoint: mean survival time, dose: 200.0 mg/kg/injection, schedule: Q01DX009 (ip), vehicle: saline with Tween-80
[13] = endpoint: mean survival time, dose: 400.0 mg/kg/injection, schedule: Q01DX009 (ip), vehicle: saline with Tween-80

Measured: T/C

O=C(NO)c1ccccc1
inactive: endpoint: mean survival time, dose: 25.0 mg/kg/injection, schedule: Q01DX009 (ip), vehicle: saline 96 % of control | endpoint: mean survival time, dose: 50.0 mg/kg/injection, schedule: Q01DX009 (ip), vehicle: saline 94 % of control | [1] 110 % of control | endpoint: mean survival time, dose: 100.0 mg/kg/injection, schedule: Q01DX009 (ip), vehicle: saline sonified 103 % of control | endpoint: mean survival time, dose: 100.0 mg/kg/injection, schedule: Q01DX009 (ip), vehicle: saline 98 % of control and 109 % of control | [2] 98 % of control | [3] 103 % of control | endpoint: mean survival time, dose: 200.0 mg/kg/injection, schedule: Q01DX009 (ip), vehicle: saline sonified 115 % of control | endpoint: mean survival time, dose: 200.0 mg/kg/injection, schedule: Q01DX009 (ip), vehicle: saline 121 % of control and 102 % of control | [4] 96 % of control | [5] 117 % of control | [6] 116 % of control

N#CSCc1cc(Cl)c(CSC#N)c(Cl)c1Cl
inactive: endpoint: mean survival time, dose: 75.0 mg/kg/injection, schedule: Q04DX003 (ip), vehicle: saline 101 % of control | endpoint: mean survival time, dose: 150.0 mg/kg/injection, schedule: Q04DX003 (ip), vehicle: saline 96 % of control | endpoint: mean survival time, dose: 300.0 mg/kg/injection, schedule: Q04DX003 (ip), vehicle: saline 97 % of control

CCCCCCCCCCCCCCC[N+]1(CC)CCCCC1
inactive: endpoint: mean survival time, dose: 0.09 mg/kg/injection, schedule: Q01DX009 (ip), vehicle: saline 102 % of control | endpoint: mean survival time, dose: 0.19 mg/kg/injection, schedule: Q01DX009 (ip), vehicle: saline 102 % of control | endpoint: mean survival time, dose: 0.39 mg/kg/injection, schedule: Q01DX009 (ip), vehicle: saline 115 % of control | endpoint: mean survival time, dose: 0.78 mg/kg/injection, schedule: Q01DX009 (ip), vehicle: saline 103 % of control

CC(C)=CBr
inactive: endpoint: mean survival time, dose: 100.0 mg/kg/injection, schedule: Q04DX003 (ip), vehicle: acetone 103 % of control | endpoint: mean survival time, dose: 200.0 mg/kg/injection, schedule: Q04DX003 (ip), vehicle: acetone 94 % of control

NC(=O)c1ccccc1N=NN(CCF)CCF
inactive: endpoint: mean survival time, dose: 5.3 mg/kg/injection, schedule: Q04DX003 (ip), vehicle: saline with Tween-80 103 % of control | endpoint: mean survival time, dose: 8.0 mg/kg/injection, schedule: Q04DX003 (ip), vehicle: saline with Tween-80 100 % of control | endpoint: mean survival time, dose: 12.0 mg/kg/injection, schedule: Q04DX003 (ip), vehicle: saline with Tween-80 105 % of control

COc1ccc2cc(OC)c(OC)cc2n1
inactive: [1] 96 % of control | [3] 96 % of control | [5] 98 % of control

c1ccc(N/N=C2/CSCc3ccccc32)cc1
inactive: endpoint: mean survival time, dose: 100.0 mg/kg/injection, schedule: Q01DX009 (ip), vehicle: Klucel (hydroxypropylcellulose) (HPC) 98 % of control | endpoint: mean survival time, dose: 200.0 mg/kg/injection, schedule: Q01DX009 (ip), vehicle: Klucel (hydroxypropylcellulose) (HPC) 93 % of control | endpoint: mean survival time, dose: 400.0 mg/kg/injection, schedule: Q01DX009 (ip), vehicle: Klucel (hydroxypropylcellulose) (HPC) 93 % of control

CNNCCCCC(=O)NC(C)C
inactive: endpoint: mean survival time, dose: 25.0 mg/kg/injection, schedule: Q04DX003 (ip), vehicle: saline 105 % of control | endpoint: mean survival time, dose: 50.0 mg/kg/injection, schedule: Q04DX003 (ip), vehicle: saline 101 % of control | endpoint: mean survival time, dose: 100.0 mg/kg/injection, schedule: Q04DX003 (ip), vehicle: saline 101 % of control

CN(C)CCNC(=O)c1ccc(N)cc1
inactive: [7] 102 % of control | endpoint: mean survival time, dose: 200.0 mg/kg/injection, schedule: Q04DX002 (ip), vehicle: saline 102 % of control

O=C(SC(=O)c1ccccc1)c1ccccc1
inactive: [2] 97 % of control | [4] 100 % of control | [6] 94 % of control

Nc1nc2c(nc(N3CCCC3)n2C2OC(CO)C(O)C2O)c(=O)[nH]1 (configuration not stated)
inactive: endpoint: mean survival time, dose: 12.5 mg/kg/injection, schedule: Q01DX005 (ip), vehicle: distilled water + Tween-80 100 % of control | endpoint: mean survival time, dose: 25.0 mg/kg/injection, schedule: Q01DX005 (ip), vehicle: distilled water + Tween-80 102 % of control | endpoint: mean survival time, dose: 50.0 mg/kg/injection, schedule: Q01DX005 (ip), vehicle: distilled water + Tween-80 98 % of control | endpoint: mean survival time, dose: 100.0 mg/kg/injection, schedule: Q01DX005 (ip), vehicle: distilled water + Tween-80 100 % of control | endpoint: mean survival time, dose: 200.0 mg/kg/injection, schedule: Q01DX005 (ip), vehicle: distilled water + Tween-80 100 % of control

CS(=O)(=O)c1nnc(S(C)(=O)=O)s1
inactive: endpoint: mean survival time, dose: 3.0 mg/kg/injection, schedule: Q01DX009 (ip), vehicle: saline sonified 104 % of control | endpoint: mean survival time, dose: 6.0 mg/kg/injection, schedule: Q01DX009 (ip), vehicle: saline sonified 102 % of control | endpoint: mean survival time, dose: 12.0 mg/kg/injection, schedule: Q01DX009 (ip), vehicle: saline sonified 113 % of control | endpoint: mean survival time, dose: 12.5 mg/kg/injection, schedule: Q04DX003 (ip), vehicle: saline sonified 104 % of control

COc1ccc(C(O)(c2ccccc2)C(OC(=O)CCl)c2ccccc2)cc1 (configuration not stated)
inactive: [3] 91 % of control | [5] 89 % of control

CC(C)CCCC(C)C1CCC2C3CC=C4CC(O)CCC4(C)C3CCC12C (configuration not stated) (tested in a mixture with another compound)
inactive: endpoint: mean survival time, dose: 12.5 mg/kg/injection, schedule: Q01DX009 (ip), vehicle: water 102 % of control | endpoint: mean survival time, dose: 25.0 mg/kg/injection, schedule: Q01DX009 (ip), vehicle: water 100 % of control | endpoint: mean survival time, dose: 50.0 mg/kg/injection, schedule: Q01DX009 (ip), vehicle: water 102 % of control

Cc1c(Cl)c(Cl)c(Cl)c(I)c1Cl
inactive: [8] 96 % of control | [1] 97 % of control | [9] 93 % of control | [3] 102 % of control | [10] 93 % of control | [5] 97 % of control

COc1cc(C2=N/C(=C\c3cc(Br)ccc3O)C(=O)O2)cc(OC)c1OC
inactive: [8] 88 % of control | [9] 95 % of control and 100 % of control | [10] 96 % of control | endpoint: mean survival time, dose: 400.0 mg/kg/injection, schedule: Q04DX002 (ip), vehicle: saline with Tween-80 88 % of control and 100 % of control

COc1cc(/C=N/NC(=O)COc2ccccc2)ccc1O
inactive: [11] 89 % of control | [12] 89 % of control | [13] 94 % of control

CCCCCC#CC(=O)OC
inactive: endpoint: mean survival time, dose: 50.0 mg/kg/injection, schedule: Q01DX009 (ip), vehicle: saline with Tween-80 95 % of control | [11] 104 % of control | [2] 94 % of control | [12] 103 % of control | [4] 96 % of control

CCC1CN2C(=N1)c1ccccc1-c1cc(Cl)ccc12 (configuration not stated)
inactive: endpoint: mean survival time, dose: 10.0 mg/kg/injection, schedule: Q04DX003 (ip), vehicle: Klucel (hydroxypropylcellulose) (HPC) 98 % of control | endpoint: mean survival time, dose: 20.0 mg/kg/injection, schedule: Q04DX003 (ip), vehicle: Klucel (hydroxypropylcellulose) (HPC) 103 % of control

O=S(CC(O)(c1ccccc1)c1ccccc1)c1ccccc1 (configuration not stated)
inactive: [2] 93 % of control | [4] 97 % of control | [6] 97 % of control

CN1CCSC1=S
inactive: endpoint: mean survival time, dose: 75.0 mg/kg/injection, schedule: Q01DX001 (ip), vehicle: other 92 % of control | endpoint: mean survival time, dose: 150.0 mg/kg/injection, schedule: Q01DX001 (ip), vehicle: other 96 % of control | endpoint: mean survival time, dose: 300.0 mg/kg/injection, schedule: Q01DX001 (ip), vehicle: other 104 % of control

CC#CC(=O)O
inactive: [7] 98 % of control

CCOC(=O)C(C=O)(NC(=O)c1ccccc1)OCC (configuration not stated)
inactive: [11] 100 % of control | [12] 105 % of control | [13] 96 % of control

Fc1ccc(Nc2c3ccccc3nc3ccccc23)cc1
inactive: [11] 96 % of control

NC(=O)c1ncn(C2OC(CO)C(O)C2O)c1Cl (configuration not stated)
inactive: endpoint: median survival time, dose: 8.0 mg/kg/injection, schedule: Q01DX005 (ip), vehicle: water 100 % of control | endpoint: median survival time, dose: 16.0 mg/kg/injection, schedule: Q01DX005 (ip), vehicle: water 103 % of control | endpoint: median survival time, dose: 32.0 mg/kg/injection, schedule: Q01DX005 (ip), vehicle: water 100 % of control | endpoint: median survival time, dose: 64.0 mg/kg/injection, schedule: Q01DX005 (ip), vehicle: water 100 % of control | endpoint: median survival time, dose: 128.0 mg/kg/injection, schedule: Q01DX005 (ip), vehicle: water 107 % of control

CC(C)(C)c1cc(C=C(C#N)C#N)cc(C(C)(C)C)c1O
inactive: endpoint: mean survival time, dose: 100.0 mg/kg/injection, schedule: Q01DX001 (ip), vehicle: Klucel (hydroxypropylcellulose) (HPC) 87 % of control | endpoint: mean survival time, dose: 200.0 mg/kg/injection, schedule: Q01DX001 (ip), vehicle: Klucel (hydroxypropylcellulose) (HPC) 102 % of control | endpoint: mean survival time, dose: 400.0 mg/kg/injection, schedule: Q01DX001 (ip), vehicle: Klucel (hydroxypropylcellulose) (HPC) 87 % of control

C=C1CCCCC1C(C(=O)O)(c1ccccc1)c1ccccc1 (configuration not stated)
inactive: [2] 102 % of control | [4] 102 % of control | [6] 100 % of control

CCOC(=O)CCC1(C(=O)OC)C(=O)CCCCC/C=C/1C(=O)OC (configuration not stated)
inactive: [11] 101 % of control | [12] 93 % of control | [13] 96 % of control
